In US9884828B2, “Substituted cinnolines as inhibitors of LRRK2 kinase activity” (Imago Pharmaceuticals, Inc., priority 2011, dated 2018) one finds IC50 data, which are given here for 33 compounds.

The structures appear in SMILES notation.

The target in the assay is recombinant GST-LRRK2 (wild-type) (Homo sapiens (Human), UniProt Q5S007). The assay is described as follows: LRRK2 TR-FRET peptide assay (in vitro kinase activity), wild-type. Format: biochemical. The following applies: 100 μM ATP, 100 nM biotin-LRRKtide substrate, 10 nM kinase, 60 minutes at room temperature. As to the method: Compounds as described herein (compounds of Formula I, e.g., compounds of the above Examples) are tested for their in vitro kinase activities using various LRRK2 (including LRRK2 G2019S mutant) assays. […] Serially diluted compounds (1% DMSO as co-solvent) were pre-incubated with recombinant GST-LRRK2 (wild-type, or G2019S mutant, Invitrogen) for 15 minutes at room temperature in 384-well Corning black plates. […] The inhibition of each well was calculated using the control and background readings for that plate. IC50 values were determined from dose-response curves using eight concentrations from the serial dilution of the test compounds.
recombinant GST-LRRK2 (wild-type), sequence (Q5S007 whole entry): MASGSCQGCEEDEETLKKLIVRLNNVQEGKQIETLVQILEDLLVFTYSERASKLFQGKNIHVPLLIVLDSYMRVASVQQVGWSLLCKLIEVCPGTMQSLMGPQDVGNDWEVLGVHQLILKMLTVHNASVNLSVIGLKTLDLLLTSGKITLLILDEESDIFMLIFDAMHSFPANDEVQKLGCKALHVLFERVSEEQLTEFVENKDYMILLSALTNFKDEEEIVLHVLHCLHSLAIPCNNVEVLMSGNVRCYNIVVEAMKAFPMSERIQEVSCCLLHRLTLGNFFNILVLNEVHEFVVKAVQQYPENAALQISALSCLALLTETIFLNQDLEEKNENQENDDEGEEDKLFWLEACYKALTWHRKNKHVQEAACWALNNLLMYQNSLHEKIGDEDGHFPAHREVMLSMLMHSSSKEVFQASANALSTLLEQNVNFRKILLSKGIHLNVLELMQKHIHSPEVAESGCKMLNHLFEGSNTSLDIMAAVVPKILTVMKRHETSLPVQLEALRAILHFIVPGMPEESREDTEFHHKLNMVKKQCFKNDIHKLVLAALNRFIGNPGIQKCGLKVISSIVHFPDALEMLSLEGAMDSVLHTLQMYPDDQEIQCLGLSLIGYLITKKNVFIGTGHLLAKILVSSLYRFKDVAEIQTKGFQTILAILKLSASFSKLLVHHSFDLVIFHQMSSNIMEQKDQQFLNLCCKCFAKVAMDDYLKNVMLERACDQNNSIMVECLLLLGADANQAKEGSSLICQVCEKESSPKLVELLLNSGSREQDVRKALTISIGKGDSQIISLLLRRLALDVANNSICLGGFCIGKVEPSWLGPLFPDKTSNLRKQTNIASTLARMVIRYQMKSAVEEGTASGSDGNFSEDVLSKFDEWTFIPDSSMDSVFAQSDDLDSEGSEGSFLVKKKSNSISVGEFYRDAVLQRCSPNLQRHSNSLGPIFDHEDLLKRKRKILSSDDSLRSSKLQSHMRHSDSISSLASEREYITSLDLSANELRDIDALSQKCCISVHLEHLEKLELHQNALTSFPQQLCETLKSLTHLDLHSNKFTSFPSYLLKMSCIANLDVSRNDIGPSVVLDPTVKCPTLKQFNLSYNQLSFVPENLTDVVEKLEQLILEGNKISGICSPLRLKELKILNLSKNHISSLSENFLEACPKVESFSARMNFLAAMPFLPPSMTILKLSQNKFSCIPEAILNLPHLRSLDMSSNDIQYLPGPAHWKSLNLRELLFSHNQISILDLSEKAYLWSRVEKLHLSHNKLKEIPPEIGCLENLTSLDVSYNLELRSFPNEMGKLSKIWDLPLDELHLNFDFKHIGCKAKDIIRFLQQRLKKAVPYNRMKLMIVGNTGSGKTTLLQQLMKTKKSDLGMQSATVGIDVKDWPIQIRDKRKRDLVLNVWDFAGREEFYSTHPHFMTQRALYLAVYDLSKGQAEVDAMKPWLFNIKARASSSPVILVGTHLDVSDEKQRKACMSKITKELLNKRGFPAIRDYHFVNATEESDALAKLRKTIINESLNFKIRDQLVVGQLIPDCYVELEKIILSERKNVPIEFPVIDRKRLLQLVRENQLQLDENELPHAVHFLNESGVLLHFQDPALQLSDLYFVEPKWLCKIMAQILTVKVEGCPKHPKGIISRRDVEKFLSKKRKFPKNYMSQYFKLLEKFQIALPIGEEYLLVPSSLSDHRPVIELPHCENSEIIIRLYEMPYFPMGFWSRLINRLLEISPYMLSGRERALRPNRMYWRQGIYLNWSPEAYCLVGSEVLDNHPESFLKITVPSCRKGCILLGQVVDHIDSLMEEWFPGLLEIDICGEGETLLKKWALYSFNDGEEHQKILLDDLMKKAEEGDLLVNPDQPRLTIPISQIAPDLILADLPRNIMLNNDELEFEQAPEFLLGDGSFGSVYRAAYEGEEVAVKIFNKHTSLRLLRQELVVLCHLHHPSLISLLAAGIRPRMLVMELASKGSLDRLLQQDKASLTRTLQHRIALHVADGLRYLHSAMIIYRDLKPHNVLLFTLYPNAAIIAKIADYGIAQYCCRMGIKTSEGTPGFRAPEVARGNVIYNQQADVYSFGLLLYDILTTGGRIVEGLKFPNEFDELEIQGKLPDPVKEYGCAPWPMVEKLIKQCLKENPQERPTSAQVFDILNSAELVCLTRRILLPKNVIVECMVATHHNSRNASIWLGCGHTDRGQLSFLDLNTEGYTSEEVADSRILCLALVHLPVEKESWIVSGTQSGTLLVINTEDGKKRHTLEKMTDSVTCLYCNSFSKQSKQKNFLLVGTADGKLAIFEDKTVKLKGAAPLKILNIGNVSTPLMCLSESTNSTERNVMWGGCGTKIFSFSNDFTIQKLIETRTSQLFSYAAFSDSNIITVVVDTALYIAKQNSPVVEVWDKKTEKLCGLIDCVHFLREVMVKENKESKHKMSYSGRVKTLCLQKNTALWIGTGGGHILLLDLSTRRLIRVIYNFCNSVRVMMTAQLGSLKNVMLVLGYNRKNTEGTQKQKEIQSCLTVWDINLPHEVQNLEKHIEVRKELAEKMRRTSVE
In general terms: TR-FRET usually uses a lanthanide donor and a delayed reading to cut background.
As a reminder, the IC50 is the midpoint of a concentration-inhibition curve. `CS(=O)(=O)c1ccc(-c2ccc3c(NC4CCOC4)c(C(N)=O)nnc3c2)cc1` (stereo not drawn) [Compound 2-23, 7-(4-(methylsulfonyl)phenyl)-4-(tetrahydrofuran-3-ylamino)cinnoline-3-carboxamide]: the IC50 amounted to 17 nM.
Turning to `CCNc1c(C(N)=O)nnc2cc(-c3ccc(S(C)(=O)=O)cc3)ccc12` [Compound 2-93, 4-(ethylamino)-7-(4-(methylsulfonyl)phenyl)cinnoline-3-carboxamide], the IC50 worked out at 46 nM.
Then `C[C@@H](Nc1c(C(N)=O)nnc2cc(-c3cncc4ccccc34)ccc12)C1CC1` [Compound 2-105, (R)-4-(1-cyclopropylethylamino)-7-(isoquinolin-4-yl)cinnoline-3-carboxamide], with 380 nM.
As to `COc1cc(N2CCOC2=O)ccc1-c1ccc(OC)c(-c2ccc3c(N[C@H](C)C4CC4)c(C(N)=O)nnc3c2)c1` [Compound 9-208, (R)-4-(1-cyclopropylethylamino)-7-(2′,4-dimethoxy-4′-(2-oxooxazolidin-3-yl)biphenyl-3-yl)cinnoline-3-carboxamide], the IC50 is 1100 nM.
As for `CC(C)Nc1c(C(N)=O)nnc2cc(-c3cccnc3)ccc12` [Compound 2-57, 4-(isopropylamino)-7-(pyridin-3-yl)cinnoline-3-carboxamide], the IC50 was 33 nM.
To `Cc1nnc2cc(-c3ccc(S(C)(=O)=O)cc3)ccc2c1NC(C)C` [Compound 6-83, N-isopropyl-3-methyl-7-(4-(methylsulfonyl)phenyl)cinnolin-4-amine] belongs 21600 nM; to `CC(C)Nc1c(C(N)=O)nnc2cc(-c3cccc(N4CCOCC4)c3)ccc12` [Compound 2-51, 4-(isopropylamino)-7-(3-morpholinophenyl)cinnoline-3-carboxamide], 17 nM; to `CC(C)Nc1c(C(N)=O)nnc2cc(CCO)ccc12` [Compound 7-198, 7-(2-hydroxyethyl)-4-(isopropylamino)cinnoline-3-carboxamide], 940 nM.
Then `C[C@@H](Nc1c(C(N)=O)nnc2cc(-c3ccc(S(C)(=O)=O)cc3)ccc12)C1CC1` [Compound 2-41, (R)-4-(1-cyclopropylethylamino)-7-(4-(methylsulfonyl)phenyl)cinnoline-3-carboxamide], with less than 6 nM; and `CNc1c(C(N)=O)nnc2cc(-c3ccc(S(C)(=O)=O)cc3)ccc12` [Compound 2-94, 4-(methylamino)-7-(4-(methylsulfonyl)phenyl)cinnoline-3-carboxamide], with 120 nM; and `NC(=O)c1nnc2cc(-c3cccc(N4CCOCC4)c3)ccc2c1N` [Compound 1-6, 4-amino-7-(3-morpholinophenyl)cinnoline-3-carboxamide], with 120 nM.
Turning to `COCc1ccccc1-c1ccc2c(N[C@H](C)C3CC3)c(C(N)=O)nnc2c1` [Compound 2-104, (R)-4-(1-cyclopropylethylamino)-7-(2-(methoxymethyl)phenyl)cinnoline-3-carboxamide], the IC50 came out at 330 nM.
Then `CC(C)Nc1c(C(N)=O)nnc2cc(-c3cnn(C)c3)ccc12` [Compound 2-35, 4-(isopropylamino)-7-(1-methyl-1H-pyrazol-4-yl)cinnoline-3-carboxamide], with 9 nM; and `C[C@@H](Nc1c(C(N)=O)nnc2cc(-c3ccc(S(C)(=O)=O)cc3)ccc12)C1CCOCC1` [Compound 2-90, (R)-7-(4-(methylsulfonyl)phenyl)-4-(1-(tetrahydro-2H-pyran-4-yl)ethylamino)cinnoline-3-carboxamide], with 63 nM; and `C[C@@H](Nc1c(C(N)=O)nnc2cc(-c3ccc4c(c3)CC(=O)N4)ccc12)C1CC1` [Compound 2-106, (R)-4-(1-cyclopropylethylamino)-7-(2-oxoindolin-5-yl)cinnoline-3-carboxamide], with 11 nM.
To `CC(C)Nc1c(C(N)=O)nnc2cc(N3CCCC3=O)ccc12` [Compound 4-85, 4-(isopropylamino)-7-(2-oxopyrrolidin-1-yl)cinnoline-3-carboxamide] belongs 170 nM.
Then `COc1cc(-c2ncccc2F)ccc1-c1ccc2c(N[C@H](C)C3CC3)c(C(N)=O)nnc2c1` [Compound 11-218, (R)-4-(1-Cyclopropylethylamino)-7-(4-(3-fluoropyridin-2-yl)-2-methoxyphenyl)cinnoline-3-carboxamide], with 43 nM.
Turning to `CC(C)Nc1c(C(N)=O)nnc2cc(-c3cccc(F)c3)ccc12` [Compound 2-45, 7-(3-fluorophenyl)-4-(isopropylamino)cinnoline-3-carboxamide], the half-maximal inhibitory concentration (IC50) is 84 nM.
Then `CC[C@@H](C)Nc1c(C(N)=O)nnc2cc(-c3ccc(S(C)(=O)=O)cc3)ccc12` [Compound 2-37, (R)-(sec-butylamino)-7-(4-(methylsulfonyl)phenyl)cinnoline-3-carboxamide], with less than 6 nM; and `COc1ccc(N2CCOC2=O)cc1-c1ccc2c(N[C@H](C)C3CC3)c(C(N)=O)nnc2c1` [Compound 9-206, (R)-4-(1-cyclopropylethylamino)-7-(2-methoxy-5-(2-oxooxazolidin-3-yl)phenyl)cinnoline-3-carboxamide], with 54 nM; and `NC(=O)c1nnc2cc(-c3ccncc3)ccc2c1NCCCO` [Compound 2-136, 4-(3-hydroxypropylamino)-7-(pyridin-4-yl)cinnoline-3-carboxamide], with 120 nM.
Then `COc1ccc(Br)cc1-c1ccc2c(N[C@H](C)C3CC3)c(C(N)=O)nnc2c1` [Compound 2-109, (R)-7-(5-bromo-2-methoxyphenyl)-4-(1-cyclopropylethylamino)cinnoline-3-carboxamide], with 710 nM.
Then `CC[C@@H](C)Nc1c(C#N)nnc2cc(-c3ccc(S(C)(=O)=O)cc3)ccc12` [Compound 2-38, (R)-4-(sec-butylamino)-7-(4-(methylsulfonyl)phenyl)cinnoline-3-carbonitrile], with 550 nM; and `C[C@@H](Nc1c(C(N)=O)nnc2cc(-c3ccc(C(=O)N(C)C)cc3)ccc12)C1CC1` [Compound 2-114, (R)-4-(1-cyclopropylethylamino)-7-(4-(dimethylcarbamoyl)phenyl)cinnoline-3-carboxamide], with 0.5 nM.
As to `CC(C)Nc1c(C(N)=O)nnc2cc(Sc3ccccc3)ccc12` [Compound 4-76, 4-(isopropylamino)-7-(phenylthio)cinnoline-3-carboxamide], the 50% inhibitory concentration (IC50) is 560 nM.
To `CNC(=O)c1nnc2cc(-c3ccc(S(C)(=O)=O)cc3)ccc2c1N[C@H](C)C1CC1` [Compound 12-231, (R)-4-(1-cyclopropylethylamino)-N-methyl-7-(4-(methylsulfonyl)phenyl)cinnoline-3-carboxamide] belongs 170 nM.
Then `CC(C)Nc1c(C(N)=O)nnc2ccc(-c3cn[nH]c3)cc12` [Compound 2-127, 4-(isopropylamino)-6-(1H-pyrazol-4-yl)cinnoline-3-carboxamide], with less than 6 nM; and `CC(C)Nc1c(C(N)=O)nnc2ccc(-c3nccs3)cc12` [Compound 2-130, 4-(isopropylamino)-6-(thiazol-2-yl)cinnoline-3-carboxamide], with 570 nM; and `CNC(=O)c1nnc2cc(C3CC3)ccc2c1N[C@H](C)C1CC1` [Compound 14-236, (R)-7-cyclopropyl-4-(1-cyclopropylethylamino)-N-methylcinnoline-3-carboxamide], with 1950 nM.
To `COc1ccc(S(C)(=O)=O)cc1-c1ccc2c(N[C@H](C)C3CC3)c(C(N)=O)nnc2c1` [Compound 2-115, (R)-4-(1-cyclopropylethylamino)-7-(2-methoxy-5-(methylsulfonyl)phenyl)cinnoline-3-carboxamide] belongs 50 nM.
With `CC(C)(C)Nc1c(C(N)=O)nnc2cc(-c3ccc(S(C)(=O)=O)cc3)ccc12` [Compound 2-91, 4-(tert-butylamino)-7-(4-(methylsulfonyl)phenyl)cinnoline-3-carboxamide], the IC50 is 45 nM.
To `CC(C)Nc1c(-c2nccc(=O)[nH]2)nnc2cc(-c3ccc(S(C)(=O)=O)cc3)ccc12` [Compound 3-187, 2-(4-(isopropylamino)-7-(4-(methylsulfonyl)phenyl)cinnolin-3-yl)pyrimidin-4(3H)-one] belongs 280 nM.
For `CC(C)Nc1c(C(N)=O)nnc2cc(Nc3ccccc3)ccc12` [Compound 4-78, 4-(isopropylamino)-7-(phenylamino)cinnoline-3-carboxamide], the IC50 was 72 nM.
